Laboratory results as given in the supplement of paper PMC10307832.

Key:
Experiment in all cases: relative viability (nuclei count vs DMSO), 5 days (fraction); higher = more cells survive
[1] = compound: C1=CC2=C(C=C(C(=C2N=C1)O)N=NC3=CC4=C(C=C3)C=C(C=C4)S(=O)(=O)O)S(=O)(=O)O + CS(=O)(=O)CCNCc1ccc(-c2ccc3ncnc(Nc4ccc(OCc5cccc(F)c5)c(Cl)c4)c3c2)o1 [Lapatinib] (partner 2 µM)
How it was run: (§1)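 For relative viability, nuclei counts in treated wells were divided by those in vehicle wells. Lung cancer cell lines had been pin-tool dosed in 1536-well plates the day after seeding and cultured for 5 days, then fixed and stained in one step (final 0.05% Triton X-100, 1% formaldehyde, 1 ug/ml Hoechst) and imaged at 4×. Doses were one drug alone or a fixed anchor-drug dose plus five library-drug doses (not always all listed) in √10 steps, and values are duplicate-plate medians.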

[2] = compound: C1=CC2=C(C=C(C(=C2N=C1)O)N=NC3=CC4=C(C=C3)C=C(C=C4)S(=O)(=O)O)S(=O)(=O)O + CS(=O)(=O)N1CCN(Cc2cc3nc(-c4cccc5[nH]ncc45)nc(N4CCOCC4)c3s2)CC1 [Pictilisib] (partner 1 µM)
How it was run: as §1

AT-7519 + Lapatinib = compound: O=C(NC1CCNCC1)c1n[nH]cc1NC(=O)c1c(Cl)cccc1Cl [AT-7519] + CS(=O)(=O)CCNCc1ccc(-c2ccc3ncnc(Nc4ccc(OCc5cccc(F)c5)c(Cl)c4)c3c2)o1 [Lapatinib] (partner 2 µM)
How it was run: as §1

AT-7519 + Alpelisib = compound: O=C(NC1CCNCC1)c1n[nH]cc1NC(=O)c1c(Cl)cccc1Cl [AT-7519] + Cc1nc(NC(=O)N2CCC[C@H]2C(N)=O)sc1-c1ccnc(C(C)(C)C(F)(F)F)c1 [Alpelisib] (partner 2 µM)
How it was run: as §1

Work on RERF-LC-KJ yielded a relative viability ([1]; first compound 0.08 µM) of 0.873, a relative viability ([1]; first compound 0.253 µM) of 0.851 and a relative viability ([1]; first compound 0.8 µM) of 0.854. For the same cell line, the relative viability ([1]; first compound 2.53 µM) was 0.835, the relative viability ([1]; first compound 8 µM) was 0.788 and the relative viability ([2]; first compound 0.08 µM) was 0.623. The relative viability ([2]; first compound 0.253 µM) was 0.648, the relative viability ([2]; first compound 0.8 µM) was 0.588 and the relative viability ([2]; first compound 2.53 µM) was 0.56. For the same cell line, the relative viability ([2]; first compound 8 µM) was 0.543, the relative viability (AT-7519 + Lapatinib; first compound 0.01 µM) was 0.847 and the relative viability (AT-7519 + Lapatinib; first compound 0.03162 µM) was 0.922. It also gave a relative viability (AT-7519 + Lapatinib; first compound 0.3162 µM) of 0.86, a relative viability (AT-7519 + Lapatinib; first compound 1 µM) of 0.851 and a relative viability (AT-7519 + Alpelisib; first compound 0.01 µM) of 0.787. It also gave a relative viability (AT-7519 + Alpelisib; first compound 0.03162 µM) of 0.718, a relative viability (AT-7519 + Alpelisib; first compound 0.3162 µM) of 0.768 and a relative viability (AT-7519 + Alpelisib; first compound 1 µM) of 0.537.

In the case of NCI-H23, the relative viability ([1]; first compound 0.08 µM) was 1.31, the relative viability ([1]; first compound 0.253 µM) was 1.02 and the relative viability ([1]; first compound 0.8 µM) was 1.03. It also gave a relative viability ([1]; first compound 2.53 µM) of 0.984, a relative viability ([1]; first compound 8 µM) of 1.18 and a relative viability ([2]; first compound 0.08 µM) of 0.516. For the same cell line, the relative viability ([2]; first compound 0.253 µM) was 0.514, the relative viability ([2]; first compound 0.8 µM) was 0.365 and the relative viability ([2]; first compound 2.53 µM) was 0.45. It also gave a relative viability ([2]; first compound 8 µM) of 0.585, a relative viability (AT-7519 + Lapatinib; first compound 0.01 µM) of 0.955 and a relative viability (AT-7519 + Lapatinib; first compound 0.03162 µM) of 0.975. For the same cell line, the relative viability (AT-7519 + Lapatinib; first compound 0.3162 µM) was 0.919, the relative viability (AT-7519 + Lapatinib; first compound 1 µM) was 0.218 and the relative viability (AT-7519 + Alpelisib; first compound 0.01 µM) was 0.561. It also gave a relative viability (AT-7519 + Alpelisib; first compound 0.03162 µM) of 0.785, a relative viability (AT-7519 + Alpelisib; first compound 0.3162 µM) of 0.68 and a relative viability (AT-7519 + Alpelisib; first compound 1 µM) of 0.45.

Work on HCC-366 yielded a relative viability ([1]; first compound 0.08 µM) of 1.13, a relative viability ([1]; first compound 0.253 µM) of 0.954 and a relative viability ([1]; first compound 0.8 µM) of 1.03. It also gave a relative viability ([1]; first compound 2.53 µM) of 1.02, a relative viability ([1]; first compound 8 µM) of 1.02 and a relative viability ([2]; first compound 0.08 µM) of 0.142. For the same cell line, the relative viability ([2]; first compound 0.253 µM) was 0.139, the relative viability ([2]; first compound 0.8 µM) was 0.165 and the relative viability ([2]; first compound 2.53 µM) was 0.219. For the same cell line, the relative viability ([2]; first compound 8 µM) was 0.203, the relative viability (AT-7519 + Lapatinib; first compound 0.01 µM) was 0.868 and the relative viability (AT-7519 + Lapatinib; first compound 0.03162 µM) was 1.08. The relative viability (AT-7519 + Lapatinib; first compound 0.3162 µM) was 0.797, the relative viability (AT-7519 + Lapatinib; first compound 1 µM) was 0.243 and the relative viability (AT-7519 + Alpelisib; first compound 0.01 µM) was 0.362. For the same cell line, the relative viability (AT-7519 + Alpelisib; first compound 0.03162 µM) was 0.347, the relative viability (AT-7519 + Alpelisib; first compound 0.3162 µM) was 0.514 and the relative viability (AT-7519 + Alpelisib; first compound 1 µM) was 0.228.

Work on EMC-BAC-2 yielded a relative viability ([1]; first compound 0.08 µM) of 0.826, a relative viability ([1]; first compound 0.253 µM) of 0.881 and a relative viability ([1]; first compound 0.8 µM) of 0.877. It also gave a relative viability ([1]; first compound 2.53 µM) of 0.927, a relative viability ([1]; first compound 8 µM) of 0.74 and a relative viability ([2]; first compound 0.08 µM) of 0.514. The relative viability ([2]; first compound 0.253 µM) was 0.566, the relative viability ([2]; first compound 0.8 µM) was 0.522 and the relative viability ([2]; first compound 2.53 µM) was 0.555. It also gave a relative viability ([2]; first compound 8 µM) of 0.349, a relative viability (AT-7519 + Lapatinib; first compound 0.01 µM) of 0.866 and a relative viability (AT-7519 + Lapatinib; first compound 0.03162 µM) of 0.85. For the same cell line, the relative viability (AT-7519 + Lapatinib; first compound 0.3162 µM) was 0.889, the relative viability (AT-7519 + Lapatinib; first compound 1 µM) was 0.886 and the relative viability (AT-7519 + Alpelisib; first compound 0.01 µM) was 0.716. The relative viability (AT-7519 + Alpelisib; first compound 0.03162 µM) was 0.699, the relative viability (AT-7519 + Alpelisib; first compound 0.3162 µM) was 0.782 and the relative viability (AT-7519 + Alpelisib; first compound 1 µM) was 0.746.

NCI-H2405 gave a relative viability ([1]; first compound 0.08 µM) of 1.04, a relative viability ([1]; first compound 0.253 µM) of 1.07 and a relative viability ([1]; first compound 0.8 µM) of 0.979. It also gave a relative viability ([1]; first compound 2.53 µM) of 1.02, a relative viability ([1]; first compound 8 µM) of 1 and a relative viability ([2]; first compound 0.08 µM) of 0.496. For the same cell line, the relative viability ([2]; first compound 0.253 µM) was 0.432, the relative viability ([2]; first compound 0.8 µM) was 0.33 and the relative viability ([2]; first compound 2.53 µM) was 0.418. The relative viability ([2]; first compound 8 µM) was 0.28, the relative viability (AT-7519 + Lapatinib; first compound 0.01 µM) was 1.04 and the relative viability (AT-7519 + Lapatinib; first compound 0.03162 µM) was 1.04. It also gave a relative viability (AT-7519 + Lapatinib; first compound 0.3162 µM) of 1.03, a relative viability (AT-7519 + Lapatinib; first compound 1 µM) of 0.719 and a relative viability (AT-7519 + Alpelisib; first compound 0.01 µM) of 0.934. The relative viability (AT-7519 + Alpelisib; first compound 0.03162 µM) was 0.773, the relative viability (AT-7519 + Alpelisib; first compound 0.3162 µM) was 0.716 and the relative viability (AT-7519 + Alpelisib; first compound 1 µM) was 0.331.

For NCI-H358, the relative viability ([1]; first compound 0.08 µM) was 0.436, the relative viability ([1]; first compound 0.253 µM) was 0.393 and the relative viability ([1]; first compound 0.8 µM) was 0.469. It also gave a relative viability ([1]; first compound 2.53 µM) of 0.486, a relative viability ([1]; first compound 8 µM) of 0.483 and a relative viability ([2]; first compound 0.08 µM) of 0.37. For the same cell line, the relative viability ([2]; first compound 0.253 µM) was 0.35, the relative viability ([2]; first compound 0.8 µM) was 0.323 and the relative viability ([2]; first compound 2.53 µM) was 0.356. It also gave a relative viability ([2]; first compound 8 µM) of 0.363, a relative viability (AT-7519 + Lapatinib; first compound 0.01 µM) of 0.406 and a relative viability (AT-7519 + Lapatinib; first compound 0.03162 µM) of 0.447. The relative viability (AT-7519 + Lapatinib; first compound 0.3162 µM) was 0.335, the relative viability (AT-7519 + Lapatinib; first compound 1 µM) was 0.198 and the relative viability (AT-7519 + Alpelisib; first compound 0.01 µM) was 0.948. The relative viability (AT-7519 + Alpelisib; first compound 0.03162 µM) was 0.712, the relative viability (AT-7519 + Alpelisib; first compound 0.3162 µM) was 0.431 and the relative viability (AT-7519 + Alpelisib; first compound 1 µM) was 0.179.

NCI-H1944 was tested, and the relative viability ([1]; first compound 0.08 µM) was 0.8, the relative viability ([1]; first compound 0.253 µM) was 0.753 and the relative viability ([1]; first compound 0.8 µM) was 0.765. For the same cell line, the relative viability ([1]; first compound 2.53 µM) was 0.753, the relative viability ([1]; first compound 8 µM) was 0.565 and the relative viability ([2]; first compound 0.08 µM) was 0.333. For the same cell line, the relative viability ([2]; first compound 0.253 µM) was 0.348, the relative viability ([2]; first compound 0.8 µM) was 0.327 and the relative viability ([2]; first compound 2.53 µM) was 0.345. For the same cell line, the relative viability ([2]; first compound 8 µM) was 0.332, the relative viability (AT-7519 + Lapatinib; first compound 0.01 µM) was 0.807 and the relative viability (AT-7519 + Lapatinib; first compound 0.03162 µM) was 0.775. The relative viability (AT-7519 + Lapatinib; first compound 0.3162 µM) was 0.84, the relative viability (AT-7519 + Lapatinib; first compound 1 µM) was 0.864 and the relative viability (AT-7519 + Alpelisib; first compound 0.01 µM) was 0.86. For the same cell line, the relative viability (AT-7519 + Alpelisib; first compound 0.03162 µM) was 0.787, the relative viability (AT-7519 + Alpelisib; first compound 0.3162 µM) was 0.799 and the relative viability (AT-7519 + Alpelisib; first compound 1 µM) was 0.74.

EPLC-272H showed a relative viability ([1]; first compound 0.08 µM) of 1, a relative viability ([1]; first compound 0.253 µM) of 0.947 and a relative viability ([1]; first compound 0.8 µM) of 0.895. For the same cell line, the relative viability ([1]; first compound 2.53 µM) was 1, the relative viability ([1]; first compound 8 µM) was 0.935 and the relative viability ([2]; first compound 0.08 µM) was 0.354. For the same cell line, the relative viability ([2]; first compound 0.253 µM) was 0.321, the relative viability ([2]; first compound 0.8 µM) was 0.291 and the relative viability ([2]; first compound 2.53 µM) was 0.312. The relative viability ([2]; first compound 8 µM) was 0.104, the relative viability (AT-7519 + Lapatinib; first compound 0.01 µM) was 0.979 and the relative viability (AT-7519 + Lapatinib; first compound 0.03162 µM) was 0.913. The relative viability (AT-7519 + Lapatinib; first compound 0.3162 µM) was 0.652, the relative viability (AT-7519 + Lapatinib; first compound 1 µM) was 1.07 and the relative viability (AT-7519 + Alpelisib; first compound 0.01 µM) was 0.905. It also gave a relative viability (AT-7519 + Alpelisib; first compound 0.03162 µM) of 0.957, a relative viability (AT-7519 + Alpelisib; first compound 0.3162 µM) of 0.885 and a relative viability (AT-7519 + Alpelisib; first compound 1 µM) of 0.856.
